Numbers after ± are expanded uncertainties.
Columns and labels:
[1] = refractive index (Na D-line) (dimensionless); conditions: 101.33 kPa, Liquid, Standard Abbe refractometry
[2] = 298.2 K; 101.33 kPa; Liquid; Vibrating tube method
[3] = relative permittivity at various frequencies (dimensionless); conditions: 101 kPa, Liquid, Frequency=0.1 MHz, Coaxial cylinder capacitor
[4] = refractive index (Na D-line) (dimensionless); xn = mol fraction of the nth substance listed; conditions: 101 kPa, Liquid, Standard Abbe refractometry, x2 = 0
[5] = relative permittivity at various frequencies (dimensionless); xn = mol fraction of the nth substance listed; conditions: 101 kPa, Liquid, Frequency=0.1 MHz, Coaxial cylinder capacitor, x2 = 0

Structure (SMILES) | refractive index ([1]; 298.2 K) | refractive index ([1]; 303.2 K) | refractive index ([1]; 308.2 K) | refractive index ([1]; 313.2 K) | refractive index ([1]; 318.2 K) | mass density [2] | relative permittivity ([3]; 298.2 K) | relative permittivity ([3]; 303.2 K) | relative permittivity ([3]; 308.2 K) | relative permittivity ([3]; 313.2 K) | relative permittivity ([3]; 318.2 K) | refractive index ([4]; 298.2 K) | refractive index ([4]; 303.2 K) | refractive index ([4]; 308.2 K) | refractive index ([4]; 313.2 K) | refractive index ([4]; 318.2 K) | relative permittivity ([5]; 298.2 K) | relative permittivity ([5]; 303.2 K) | relative permittivity ([5]; 308.2 K) | relative permittivity ([5]; 313.2 K) | also measured
CC(O)CCO (stereo not drawn) [1,3-butanediol] | 1.4384 ± 0.0005 | 1.4371 ± 0.0005 | 1.4356 ± 0.0005 | 1.4341 ± 0.0005 | 1.4328 ± 0.0005 | 1001.2 ± 0.24 kg/m3 | 28.52 ± 0.04 | 27.66 ± 0.04 | 26.77 ± 0.04 | 25.98 ± 0.04 | 25.22 ± 0.04 |  |  |  |  |  |  |  |  |  | 
C1COCCO1 [1,4-dioxane] | 1.4201 ± 0.0005 | 1.4174 ± 0.0005 | 1.4145 ± 0.0005 | 1.4118 ± 0.0005 | 1.4088 ± 0.0005 | 1027.89 ± 0.12 kg/m3 | 2.23 ± 0.02 | 2.22 ± 0.02 | 2.21 ± 0.02 | 2.2 ± 0.02 | 2.19 ± 0.02 |  |  |  |  |  |  |  |  |  | 
C1COCCO1 [1,4-dioxane] + CC(O)CCO |  |  |  |  |  |  |  |  |  |  |  | 1.4201 ± 0.0005 | 1.4174 ± 0.0005 | 1.4145 ± 0.0005 | 1.4118 ± 0.0005 | 1.4088 ± 0.0005 | 2.23 ± 0.02 | 2.22 ± 0.02 | 2.21 ± 0.02 | 2.2 ± 0.02 | relative permittivity ([5]; 318.2 K): 2.19 ± 0.02
CCCCCCCCO [octan-1-ol] | 1.4276 ± 0.0005 | 1.4254 ± 0.0005 | 1.423 ± 0.0005 | 1.4205 ± 0.0005 | 1.4184 ± 0.0005 | 821.69 ± 0.24 kg/m3 | 9.81 ± 0.03 | 9.38 ± 0.03 | 8.94 ± 0.03 | 8.52 ± 0.03 | 8.11 ± 0.03 |  |  |  |  |  |  |  |  |  | 
CCCCCCCCO [octan-1-ol] + CC(O)CCO |  |  |  |  |  |  |  |  |  |  |  | 1.4276 ± 0.0005 | 1.4254 ± 0.0005 | 1.423 ± 0.0005 | 1.4205 ± 0.0005 | 1.4184 ± 0.0005 | 9.81 ± 0.03 | 9.38 ± 0.03 | 8.94 ± 0.03 | 8.52 ± 0.03 | relative permittivity ([5]; 318.2 K): 8.11 ± 0.03

From the NIST ThermoML archive (doi:10.1016/j.jct.2013.07.003)
